Measured values from paper PMC7311426, “An amphipathic peptide with antibiotic activity against multidrug-resistant Gram-negative bacteria” (Nature Communications, 2020).
≈ marks a conversion by molar mass, not a printed value.

How the values were obtained:
Assay in all cases: microbe, parasite or virus in culture
E. coli = tested on: E. coli
Method in brief: (§1)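 Broth microdilution in MHB, 2-fold 12-point series from 128 or 64 down to 0.06 or 0.03 μg mL^−1, 5 × 10^5 CFU mL^−1. Extra runs in CAMHB per CLSI and in MHB with 1% agarose; n ≥ 6.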

K. pneumoniae = tested on: K. pneumoniae
Method in brief: as §1

P. aeruginosa = tested on: P. aeruginosa
Method in brief: as §1

With `NC[C@H]1O[C@H](O[C@H]2[C@H](O)[C@@H](O[C@H]3O[C@H](CO)[C@@H](O)[C@H](N)[C@H]3O)[C@H](N)C[C@@H]2N)[C@H](N)C[C@@H]1O` [TOB] the “MIC, broth microdilution” value (E. coli; E. coli AUD172 parent strain not exposed to drug) was 8 µg/mL (≈ 17.1 µM), the “MIC, broth microdilution” value (E. coli; E. coli AUD172 spontaneous mutant, AA139 selection 4X, plate 2, colony 2, drug-free passage 1) was 8 µg/mL (≈ 17.1 µM) and the “MIC, broth microdilution” value (E. coli; E. coli AUD172 spontaneous mutant, AA139 selection 4X, plate 2, colony 2, drug-free passage 5) was 16 µg/mL (≈ 34.2 µM). For the same compound, the “MIC, broth microdilution” value (K. pneumoniae; K. pneumoniae 3010 parent strain not exposed to drug) was 0.5 µg/mL (≈ 1.07 µM), the “MIC, broth microdilution” value (K. pneumoniae; K. pneumoniae 3010 spontaneous mutant, AA139 selection 4X, plate 1, colony 1, drug-free passage 1) was 1 µg/mL (≈ 2.14 µM) and the “MIC, broth microdilution” value (K. pneumoniae; K. pneumoniae 3010 spontaneous mutant, AA139 selection 4X, plate 1, colony 1, drug-free passage 5) was 0.25 µg/mL (≈ 0.535 µM). The “MIC, broth microdilution” value (K. pneumoniae; K. pneumoniae 3010 spontaneous mutant, AA139 selection 8X, plate 1, colony 1, drug-free passage 1) was 0.5 µg/mL (≈ 1.07 µM), the “MIC, broth microdilution” value (K. pneumoniae; K. pneumoniae 3010 spontaneous mutant, AA139 selection 8X, plate 1, colony 1, drug-free passage 5) was 0.25 µg/mL (≈ 0.535 µM) and the “MIC, broth microdilution” value (K. pneumoniae; K. pneumoniae ST258 parent strain not exposed to drug) was 16 µg/mL (≈ 34.2 µM). The “MIC, broth microdilution” value (K. pneumoniae; K. pneumoniae ST258 spontaneous mutant, AA139 selection 4X, plate 1, colony 1, drug-free passage 1) was 16, 16 µg/mL, the “MIC, broth microdilution” value (K. pneumoniae; K. pneumoniae ST258 spontaneous mutant, AA139 selection 4X, plate 1, colony 1, drug-free passage 5) was 16, 16 µg/mL and the “MIC, broth microdilution” value (P. aeruginosa; P. aeruginosa ATCC 27853 parent strain not exposed to drug) was 0.5 µg/mL (≈ 1.07 µM). For the same compound, the “MIC, broth microdilution” value (P. aeruginosa; P. aeruginosa ATCC 27853 spontaneous mutant, AA139 selection 4X, plate 1, colony 1, drug-free passage 1) was 1 µg/mL (≈ 2.14 µM), the “MIC, broth microdilution” value (P. aeruginosa; P. aeruginosa ATCC 27853 spontaneous mutant, AA139 selection 4X, plate 1, colony 1, drug-free passage 5) was 0.5 µg/mL (≈ 1.07 µM) and the “MIC, broth microdilution” value (P. aeruginosa; P. aeruginosa ATCC 27853 spontaneous mutant, AA139 selection 4X, plate 1, colony 2, drug-free passage 1) was 0.5, 0.5 µg/mL. For the same compound, the “MIC, broth microdilution” value (P. aeruginosa; P. aeruginosa ATCC 27853 spontaneous mutant, AA139 selection 4X, plate 1, colony 2, drug-free passage 5) was 0.5, 0.5 µg/mL, the “MIC, broth microdilution” value (P. aeruginosa; P. aeruginosa ATCC 27853 spontaneous mutant, AA139 selection 4X, plate 1, colony 3, drug-free passage 1) was 0.5, 0.5 µg/mL and the “MIC, broth microdilution” value (P. aeruginosa; P. aeruginosa ATCC 27853 spontaneous mutant, AA139 selection 4X, plate 1, colony 3, drug-free passage 5) was 0.5, 0.5 µg/mL. The “MIC, broth microdilution” value (P. aeruginosa; P. aeruginosa ATCC 27853 spontaneous mutant, AA139 selection 4X, plate 1, colony 4, drug-free passage 1) was 0.5, 0.5 µg/mL, the “MIC, broth microdilution” value (P. aeruginosa; P. aeruginosa ATCC 27853 spontaneous mutant, AA139 selection 4X, plate 1, colony 4, drug-free passage 5) was 0.5, 0.5 µg/mL and the “MIC, broth microdilution” value (P. aeruginosa; P. aeruginosa ATCC 27853 spontaneous mutant, AA139 selection 4X, plate 1, colony 5, drug-free passage 1) was 1 µg/mL (≈ 2.14 µM). The “MIC, broth microdilution” value (P. aeruginosa; P. aeruginosa ATCC 27853 spontaneous mutant, AA139 selection 4X, plate 1, colony 5, drug-free passage 5) was 0.5 µg/mL (≈ 1.07 µM), the “MIC, broth microdilution” value (P. aeruginosa; P. aeruginosa ATCC 27853 spontaneous mutant, AA139 selection 4X, plate 1, colony 6, drug-free passage 1) was 1 µg/mL (≈ 2.14 µM) and the “MIC, broth microdilution” value (P. aeruginosa; P. aeruginosa ATCC 27853 spontaneous mutant, AA139 selection 4X, plate 1, colony 6, drug-free passage 5) was 0.5 µg/mL (≈ 1.07 µM). For the same compound, the “MIC, broth microdilution” value (P. aeruginosa; P. aeruginosa ATCC 27853 spontaneous mutant, AA139 selection 4X, plate 2, colony 1, drug-free passage 1) was 0.5, 0.5 µg/mL, the “MIC, broth microdilution” value (P. aeruginosa; P. aeruginosa ATCC 27853 spontaneous mutant, AA139 selection 4X, plate 2, colony 1, drug-free passage 5) was 0.5, 0.5 µg/mL and the “MIC, broth microdilution” value (P. aeruginosa; P. aeruginosa ATCC 27853 spontaneous mutant, AA139 selection 4X, plate 2, colony 2, drug-free passage 1) was 0.5, 0.5 µg/mL. The “MIC, broth microdilution” value (P. aeruginosa; P. aeruginosa ATCC 27853 spontaneous mutant, AA139 selection 4X, plate 2, colony 2, drug-free passage 5) was 0.5, 0.5 µg/mL, the “MIC, broth microdilution” value (P. aeruginosa; P. aeruginosa ATCC 27853 spontaneous mutant, AA139 selection 4X, plate 2, colony 3, drug-free passage 1) was 1 µg/mL (≈ 2.14 µM) and the “MIC, broth microdilution” value (P. aeruginosa; P. aeruginosa ATCC 27853 spontaneous mutant, AA139 selection 4X, plate 2, colony 3, drug-free passage 5) was 0.5 µg/mL (≈ 1.07 µM). The “MIC, broth microdilution” value (P. aeruginosa; P. aeruginosa ATCC 27853 spontaneous mutant, AA139 selection 4X, plate 2, colony 4, drug-free passage 1) was 1 µg/mL (≈ 2.14 µM), the “MIC, broth microdilution” value (P. aeruginosa; P. aeruginosa ATCC 27853 spontaneous mutant, AA139 selection 4X, plate 2, colony 4, drug-free passage 5) was 0.5 µg/mL (≈ 1.07 µM) and the “MIC, broth microdilution” value (P. aeruginosa; P. aeruginosa ATCC 27853 spontaneous mutant, AA139 selection 8X, plate 1, colony 1, drug-free passage 1) was 1 µg/mL (≈ 2.14 µM). The “MIC, broth microdilution” value (P. aeruginosa; P. aeruginosa ATCC 27853 spontaneous mutant, AA139 selection 8X, plate 1, colony 1, drug-free passage 5) was 0.5 µg/mL (≈ 1.07 µM), the “MIC, broth microdilution” value (P. aeruginosa; P. aeruginosa ATCC 27853 spontaneous mutant, AA139 selection 8X, plate 1, colony 2, drug-free passage 1) was 1 µg/mL (≈ 2.14 µM) and the “MIC, broth microdilution” value (P. aeruginosa; P. aeruginosa ATCC 27853 spontaneous mutant, AA139 selection 8X, plate 1, colony 2, drug-free passage 5) was 0.5 µg/mL (≈ 1.07 µM). For the same compound, the “MIC, broth microdilution” value (P. aeruginosa; P. aeruginosa ATCC 27853 spontaneous mutant, AA139 selection 8X, plate 1, colony 3, drug-free passage 1) was 1 µg/mL (≈ 2.14 µM), the “MIC, broth microdilution” value (P. aeruginosa; P. aeruginosa ATCC 27853 spontaneous mutant, AA139 selection 8X, plate 1, colony 3, drug-free passage 5) was 0.5 µg/mL (≈ 1.07 µM) and the “MIC, broth microdilution” value (P. aeruginosa; P. aeruginosa ATCC 27853 spontaneous mutant, AA139 selection 8X, plate 1, colony 4, drug-free passage 1) was 1 µg/mL (≈ 2.14 µM). The “MIC, broth microdilution” value (P. aeruginosa; P. aeruginosa ATCC 27853 spontaneous mutant, AA139 selection 8X, plate 1, colony 4, drug-free passage 5) was 0.5 µg/mL (≈ 1.07 µM) and the “MIC, broth microdilution” value (P. aeruginosa; P. aeruginosa ATCC 27853 spontaneous mutant, AA139 selection 8X, plate 1, colony 5, drug-free passage 1) was 0.5, 0.5 µg/mL.
